Values quoted from earlier work, collected in US5656291A, “Controlled release preparation” (Pharmacia & Upjohn Aktiebolag, priority 1995, dated 1997).

Details: after oral administration

## CN1CC[C@]23c4c5ccc(O)c4O[C@H]2[C@@H](O)C=C[C@H]3[C@H]1C5 [Morphine]
  duration of analgesic effect: 4 to 6 h
